TGI and GI50 data for two molecules are collected here from PubChem BioAssay (NCI).

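1) Cells in 96-well plates. 2) Compound, 48 h, 5 concentrations. 3) Linear interpolation between surrounding doses. 4) Unreached endpoint = highest concentration. Here, GI50 denotes the concentration required for 50% inhibition of growth. TGI: concentration producing complete growth inhibition.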

Some test systems named below: SK-OV-3 ovarian; U251 CNS; MOLT-4 leukemia; CAKI-1 renal; DU-145 prostate; HOP-62 NSCLC; NCI/ADR-RES ovarian; SR leukemia; T-47D breast; RPMI-8226 leukemia; PC-3 prostate; HCT-116 colon; SF-539 CNS; MCF7 breast; MDA-MB-231 breast; SN12C renal; CCRF-CEM leukemia; OVCAR-8 ovarian; HOP-92 NSCLC.
Assay in all cases: NCI anticancer screen, dose series, 48 h

Take `CC(C)(C)[Si](C)(C)OCCC1CC2(S(=O)(=O)C3=CC=C=C=C3)ON1CC2S(=O)(=O)c1ccccc1` (stereo unspecified): the TGI in the assay with SK-OV-3 ovarian and with U251 CNS was more than 100000 nM throughout.
`COc1cc(/C=C2\CCCC3=C2N=C2SC(C)=CN2C3c2cc(OC)c(OC)c(OC)c2)cc(OC)c1OC` (stereo unspecified): the GI50 is 1770 nM in the assay with MOLT-4 leukemia; 2550 nM with CAKI-1 renal; 2760 nM with DU-145 prostate; 1890 nM in the assay on HOP-62 NSCLC; 334 nM in the assay with NCI/ADR-RES ovarian; 399 nM with SR leukemia. Besides, the GI50 with T-47D breast is 3160 nM; in the assay on RPMI-8226 leukemia it was 391 nM; with PC-3 prostate, 2190 nM; with HCT-116 colon, 692 nM; in the assay on SF-539 CNS, 3090 nM; in the assay with MCF7 breast it was 2980 nM. Besides, the GI50 in the assay with MDA-MB-231 breast is 2880 nM; with SN12C renal, 2440 nM; in the assay with CCRF-CEM leukemia, 615 nM; with OVCAR-8 ovarian it was 385 nM; with HOP-92 NSCLC, 1460 nM. The TGI with MOLT-4 leukemia was 6430 nM; with CAKI-1 renal it was more than 100000 nM; in the assay with DU-145 prostate it was more than 100000 nM; in the assay on HOP-62 NSCLC, more than 100000 nM; with NCI/ADR-RES ovarian it was more than 100000 nM; in the assay on SR leukemia, 2010 nM. Besides, the TGI with T-47D breast is more than 100000 nM; in the assay with RPMI-8226 leukemia, 2110 nM; in the assay on PC-3 prostate, more than 100000 nM; with HCT-116 colon it was 2010 nM; in the assay on SF-539 CNS, more than 100000 nM; in the assay with MCF7 breast, more than 100000 nM. Besides, the TGI in the assay on MDA-MB-231 breast was more than 100000 nM; with SN12C renal, more than 100000 nM; with CCRF-CEM leukemia, 4140 nM; with OVCAR-8 ovarian, 3090 nM; with HOP-92 NSCLC, 4270 nM.
